Results from US20250161338A1, “Compounds for Anti-aging Intervention” (AGENCY FOR SCIENCE, TECHNOLOGY AND RESEARCH, priority 2022, published 2025).
Structures can show the parent of a compound that is named as a salt.

Columns and labels:
[1] = test system: prototrophic yeast strain (CEN.PK113-7D); experiment: Propidium iodide fluorescence-based CLS method in yeast (incl. high-throughput screening); format: cell-based, Saccharomyces cerevisiae; conditions: for Yeast CLS increase: Yes/No call of the screen;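 as to PI intensity: untreated reference is eight DMSO and water control wells per plate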
Summary of the method: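 CEN.PK113-7D aged in SD medium at 30 °C with compounds (rapamycin 0–10 nM; sugars 0–8 mM; screen at single concentrations). At each age point cells were stained with 5 μg/mL PI for 15 min; fluorescence was normalized to OD600, background-subtracted, and survival scaled against boiled-cell control.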

[2] = test system: prototrophic yeast strain (CEN.PK113-7D); experiment: Yeast outgrowth in YPD liquid medium (CLS of aged cells); format: cell-based, Saccharomyces cerevisiae; conditions: age point day 14
Summary of the method: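 Cultures aged at 30 °C in SD medium with double-diluted rapamycin (0–10 nM) or sugars/polyols (0–8 mM). On day 14, 3 µL of culture was transferred into 200 µL YPD and outgrowth read as OD600. Survival expressed relative to day 1 outgrowth (100%).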

[3] = concentration tested 100 μM, solvent DMSO or water, chronological age point Day 7 (72 h growth = Day 1), lower = more survival
[4] = concentration tested 100 μM, OD600 nm after 24 h in YPD at 30° C.
[5] = concentration tested 30 μg/mL, solvent water, age point Day 7
[6] = concentration tested 30 μg/mL, OD600 nm after 24 h in YPD

C[C@@H]1O[C@@H](O[C@H]2[C@H](O[C@H]3CC[C@@]4(C)[C@@H](CC[C@]5(C)[C@@H]4CC=C4[C@@H]6CC(C)(C)CC[C@]6(C(=O)O[C@@H]6O[C@H](CO[C@@H]7O[C@H](CO)[C@@H](O[C@@H]8O[C@@H](C)[C@H](O)[C@@H](O)[C@H]8O)[C@H](O)[C@H]7O)[C@@H](O)[C@H](O)[C@H]6O)CC[C@]45C)[C@]3(C)CO)OC[C@H](O)[C@@H]2O)[C@H](O)[C@H](O)[C@H]1O [Hederacoside C]
Yeast CLS increase ([1]; concentration tested 100 μM): No
PI intensity [1, 3]: 73,515.9
Outgrowth [2, 4]: 0.1

COCc1c(C(C)C)nc(C(C)C)c(/C=C/[C@@H](O)C[C@@H](O)CC(=O)[O-])c1-c1ccc(F)cc1.[Na+] [Cerivastatin (sodium), reference compound]
Yeast CLS increase ([1]; concentration tested 100 μM): No
PI intensity [1, 3]: 64,250.5
Outgrowth [2, 4]: 0.1

O=C(O)c1ccc2c(c1)C(=O)c1ccccc1C2=O [Anthraquinone-2-carboxylic acid]
Yeast CLS increase ([1]; concentration tested 100 μM): No
PI intensity [1, 3]: 96,099.2
Outgrowth [2, 4]: 0.1

N[C@@H](Cc1ccc(O)c(Cl)c1)C(=O)O [3-Chloro-L-tyrosine]
Yeast CLS increase ([1]; concentration tested 100 μM): No
PI intensity [1, 3]: 67,122.0
Outgrowth [2, 4]: 0.1

OC(CCN1CCCCC1)(c1ccccc1)C1CC2C=CC1C2 (centres unmarked) [Biperiden (Hydrochloride), reference compound]
Yeast CLS increase ([1]; concentration tested 100 μM): No
PI intensity [1, 3]: 67,178.1
Outgrowth [2, 4]: 0.2

Br.CCN1C[C@]2(OC(=O)c3ccccc3NC(C)=O)CC[C@H](OC)[C@@]34[C@@H]2C[C@@H]([C@@H]13)[C@@]1(O)C[C@H](OC)[C@H]2C[C@@H]4[C@]1(O)[C@H]2OC [Lappaconitine (hydrobromide)]
Yeast CLS increase ([1]; concentration tested 100 μM): No
PI intensity [1, 3]: 76,000.0
Outgrowth [2, 4]: 0.1

O=C(O)c1ccco1 [2-Furoic acid]
Yeast CLS increase ([1]; concentration tested 100 μM): No
PI intensity [1, 3]: 72,748.2
Outgrowth [2, 4]: 0.1

C/C=C1\C(=O)C[C@H]2[C@@H]3CCC4=CC(=O)CC[C@]4(C)[C@H]3CC[C@]12C [Guggulsterone]
Yeast CLS increase ([1]; concentration tested 100 μM): No
PI intensity [1, 3]: 63,881.9
Outgrowth [2, 4]: 0.1

CC1OC(OC2C(=O)c3c(O)cc(O)cc3OC2c2ccc(O)cc2)C(O)C(O)C1O (centres unmarked) [Engeletin]
Yeast CLS increase ([1]; concentration tested 100 μM): Yes
PI intensity [1, 3]: 37,144.4
Outgrowth [2, 4]: 0.9

CC(C)N1CCN(c2ccc(OCC3COC(Cn4cncn4)(c4ccc(Cl)cc4Cl)O3)cc2)CC1 (centres unmarked) [Terconazole, reference compound]
Yeast CLS increase ([1]; concentration tested 100 μM): No
PI intensity [1, 3]: 72,350.0
Outgrowth [2, 4]: 0.1

OC[C@H]1O[C@@H](O[C@H]2[C@H](O)[C@@H](O)[C@H](O)O[C@@H]2CO)[C@H](O)[C@@H](O)[C@@H]1O [D-(+)-Cellobiose]
Yeast CLS increase ([1]; concentration tested 100 μM): No
PI intensity [1, 3]: 69,857.4
Outgrowth [2, 4]: 0.1

N#CCCN [β-Aminopropionitrile]
Yeast CLS increase ([1]; concentration tested 100 μM): No
PI intensity [1, 3]: 65,865.6
Outgrowth [2, 4]: 0.1

Hyaluronidase
Yeast CLS increase ([1]; concentration tested 30 μg/mL): No
PI intensity [1, 5]: 78,406.7
Outgrowth [2, 6]: 0.1

O[C@H]([C@H](O)[C@@H]1CO1)[C@H]1CO1 [VAL-083]
Yeast CLS increase ([1]; concentration tested 100 μM): No
PI intensity [1, 3]: 63,325.5
Outgrowth [2, 4]: 0.1

c1ncc2[nH]cnc2n1 [Purine]
Yeast CLS increase ([1]; concentration tested 100 μM): No
PI intensity [1, 3]: 53,185.1
Outgrowth [2, 4]: 0.1

CC(C)=CCC/C(C)=C/CO [Geraniol]
Yeast CLS increase ([1]; concentration tested 100 μM): No
PI intensity [1, 3]: 76,340.1
Outgrowth [2, 4]: 0.1

COc1ccc(CC(=O)O)cc1OC [3,4-Dimethoxyphenylacetic acid]
Yeast CLS increase ([1]; concentration tested 100 μM): No
PI intensity [1, 3]: 70,394.7
Outgrowth [2, 4]: 0.1

CC1=C(C(=O)O)N2C(=O)[C@@H](NC(=O)[C@H](N)c3ccc(O)cc3)[C@H]2SC1 [Cefadroxil, reference compound]
Yeast CLS increase ([1]; concentration tested 100 μM): No
PI intensity [1, 3]: 70,326.1
Outgrowth [2, 4]: 0.1

CCCCCCCCCCCCCCC(=O)O [Pentadecanoic acid]
Yeast CLS increase ([1]; concentration tested 100 μM): No
PI intensity [1, 3]: 75,173.9
Outgrowth [2, 4]: 0.1

CC(=O)c1ccc(O)c(C(=O)O)c1 [5-Acetylsalicylic acid]
Yeast CLS increase ([1]; concentration tested 100 μM): No
PI intensity [1, 3]: 63,538.6
Outgrowth [2, 4]: 0.1

CC(C)(O)CCc1c(O)cc(O)c2c(=O)c(O)c(-c3ccc(O)cc3)oc12 [Noricaritin]
Yeast CLS increase ([1]; concentration tested 100 μM): No
PI intensity [1, 3]: 77,179.8
Outgrowth [2, 4]: 0.1

Cn1cc(C(N)=O)ccc1=O [Nudifloramide]
Yeast CLS increase ([1]; concentration tested 100 μM): No
PI intensity [1, 3]: 65,023.3
Outgrowth [2, 4]: 0.1

CCC[C@@H]1C[C@@H](C(=O)N[C@@H]([C@H]2O[C@H](SC)[C@H](O)[C@@H](O)[C@H]2O)[C@@H](C)O)N(C)C1 [Lincomycin (hydrochloride monohydrate), reference compound]
Yeast CLS increase ([1]; concentration tested 100 μM): No
PI intensity [1, 3]: 67,751.3
Outgrowth [2, 4]: 0.1

Oc1cc(O)c2c(c1)O[C@H](c1cc(O)c(O)c(O)c1)[C@H](O)C2 [(−)-Epigallocatechin]
Yeast CLS increase ([1]; concentration tested 100 μM): No
PI intensity [1, 3]: 62,025.6
Outgrowth [2, 4]: 0.1

O=C(O)c1cc(O)cc(O)c1 [3,5-Dihydroxybenzoic acid]
Yeast CLS increase ([1]; concentration tested 100 μM): No
PI intensity [1, 3]: 59,369.7
Outgrowth [2, 4]: 0.1

C[C@H](Cn1cnc2c(N)ncnc21)OCP(=O)(O)O.O [Tenofovir (hydrate), reference compound]
Yeast CLS increase ([1]; concentration tested 100 μM): No
PI intensity [1, 3]: 76,065.0
Outgrowth [2, 4]: 0.1

O=c1ccc2cc(O[C@@H]3O[C@H](CO)[C@@H](O)[C@H](O)[C@H]3O)c(O)cc2o1 [Esculin]
Yeast CLS increase ([1]; concentration tested 100 μM): No
PI intensity [1, 3]: 72,890.7
Outgrowth [2, 4]: 0.1

N[C@@H](CCO)C(=O)O [L-Homoserine]
Yeast CLS increase ([1]; concentration tested 100 μM): No
PI intensity [1, 3]: 60,922.1
Outgrowth [2, 4]: 0.1

O=C(O)[C@H]1CCCN1 [(R)-pyrrolidine-2-carboxylic acid]
Yeast CLS increase ([1]; concentration tested 100 μM): No
PI intensity [1, 3]: 80,551.7
Outgrowth [2, 4]: 0.1

Cisatracurium (besylate) [reference compound]
Yeast CLS increase ([1]; concentration tested 100 μM): No
PI intensity [1, 3]: 75,862.3
Outgrowth [2, 4]: 0.1

COC(=O)C1=CO[C@@H](O[C@@H]2O[C@H](CO)[C@@H](O)[C@H](O)[C@H]2O)[C@H]2[C@@H]1C=C[C@@]2(O)CO [Gardenoside]
Yeast CLS increase ([1]; concentration tested 100 μM): No
PI intensity [1, 3]: 65,525.5
Outgrowth [2, 4]: 0.1

O=C(O)[C@H]1O[C@@H](Oc2c(-c3ccc(O)cc3)oc3cc(O)cc(O)c3c2=O)[C@H](O)[C@@H](O)[C@@H]1O [Kaempferol 3-O-β-D-glucuronide]
Yeast CLS increase ([1]; concentration tested 100 μM): No
PI intensity [1, 3]: 62,874.6
Outgrowth [2, 4]: 0.1

Heparin (Lithium salt) [reference compound]
Yeast CLS increase ([1]; concentration tested 30 μg/mL): No
PI intensity [1, 5]: 77,829.1
Outgrowth [2, 6]: 0.1

CCCCC[C@H](CC(=O)NO)C(=O)N[C@H](C(=O)N1CCC[C@H]1CO)C(C)C [Actinonin]
Yeast CLS increase ([1]; concentration tested 100 μM): No
PI intensity [1, 3]: 75,254.2
Outgrowth [2, 4]: 0.1

COc1cc2oc(-c3ccc(O)cc3)cc(=O)c2c(O)c1OC [Cirsimaritin]
Yeast CLS increase ([1]; concentration tested 100 μM): No
PI intensity [1, 3]: 85,017.1
Outgrowth [2, 4]: 0.1

O=C[C@H](O)[C@@H](O)[C@H](O)[C@H](O)C(=O)O [D-Glucuronic acid]
Yeast CLS increase ([1]; concentration tested 100 μM): No
PI intensity [1, 3]: 48,839.6
Outgrowth [2, 4]: 0.1

CC(C)=CCC[C@@H](C)CCO [(R)-Citronellol]
Yeast CLS increase ([1]; concentration tested 100 μM): No
PI intensity [1, 3]: 75,290.6
Outgrowth [2, 4]: 0.1

COc1cc(CC(=O)O)ccc1O [Homovanillic acid]
Yeast CLS increase ([1]; concentration tested 100 μM): No
PI intensity [1, 3]: 65,033.1
Outgrowth [2, 4]: 0.1

Cl.NCCC[C@H](N)C(=O)O [L-Ornithine (hydrochloride)]
Yeast CLS increase ([1]; concentration tested 100 μM): No
Outgrowth [2, 4]: 0.1
